Data on one compound can be found in patent US9234025B2, “Extracellular allosteric inhibitor binding domain from a tyrosine kinase receptor” (SANOFI, priority 2009, dated 2016).

One experiment relates to B9-FGFR3TD cell line. Description: B9 myeloma cell proliferation, FGFR3TD (K650E). Type of experiment: cell-based. The following applies: constitutively activated FGFR3 K650E. As for the experimental part: Cell proliferation was analysed on exponentially growing cells that were starved for 16 hours in IMDM (Invitrogen, 31980048), 0.2% FBS, 2 mM glutamine containing medium and seeded at 4,000 cells/well in 96-well microplates. After exposure to mitogens and/or SSR for 72 hours, cell proliferation was assessed with the use of the CellTiter 96 AQueous One Solution Cell Proliferation Assay (Promega, Madison, Wis., USA) according to manufacturer's instructions.
For studying SSR effect on FGFR3, the proliferation of B9-myeloma cells, expressing either FGFR3WT or FGFR3TD (a constitutively activated FGFR3 variant induced by the K650E mutation, even in the absence of any ligand; Truedel et al; blood 2006), was assayed by stimulation with FGF1 (25 ng/ml).

The target in experiment [1] is T1, ECD of FGFR1 (FGFR1^∂123) (Homo sapiens, UniProt P11362).
T1 construct: (ECD; amino acids: 39-358) of the human FGFR1 gene (P11362); His-tag followed by TEV protease cleavage site (N); made in house; host or cells: E. coli BL21(DE3)
T1 sequence (P11362 39-358): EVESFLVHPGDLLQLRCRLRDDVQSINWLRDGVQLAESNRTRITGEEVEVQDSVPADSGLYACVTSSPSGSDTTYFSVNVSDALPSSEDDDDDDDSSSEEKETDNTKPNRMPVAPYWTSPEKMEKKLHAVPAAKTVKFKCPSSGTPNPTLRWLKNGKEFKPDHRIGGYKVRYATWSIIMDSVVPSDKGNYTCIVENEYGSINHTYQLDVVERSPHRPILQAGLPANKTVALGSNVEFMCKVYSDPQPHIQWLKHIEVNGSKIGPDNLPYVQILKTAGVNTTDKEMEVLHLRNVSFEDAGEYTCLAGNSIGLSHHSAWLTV
Kind of experiment: STD-NMR / 1D-NMR binding assay, FGFR1 ECD. Here is the method: The extracellular domain (ECD; amino acids: 39-358) of the human FGFR1 gene (P11362) was PCR amplified and cloned into E. coli vector pETTEV (with a N-terminal His-tag followed by a TEV protease cleavage site), using NdeI and BamHI restriction sites. For protein production, the resulting plasmid (pET FGFR1 D1D2D3) was transformed into E. coli BL21(DE3) (Novagene). Cells were grown at 37° C. until the OD600 reached 0.6 and recombinant protein production was induced by adding 1 mM IPTG (isopropyl-b-D-thiogalactopyranoside). After 4 hours induction, cells were harvested and stored at −80° C. until usage. The cell pellet (1 L culture) was thawed and resuspended in 50 ml buffer 1 (20 mM Tris/HCl, pH 7.5, 200 mM NaCl) containing lysozyme (2 mg), and 40 U benzonase (Merck). […] Complex formation was analyzed by size exclusion chromatography and subsequent analysis on SDS-PAGE.
All STD- and 1D-NMR experiments were carried out on a BRUKER three-channel DRX600 and on a BRUKER four-channel DRX800 spectrometer at the standard temperature of 298 K and were referenced to the internal standard 3-Trimethyl-2,2,3,3-tetradeuteropropionate-sodium salt (TSP). […] For protein ligand 1D STD NMR measurements spectra were recorded with 1 mM ligand SSR128129E (100 mM DMSO stock solution) and […] protein with weak 2s RF irradiation on separated protein methyl resonances. […]

Another experiment addresses T2, FGFR1 (PAE-FGFR1) (Homo sapiens, UniProt P11362).
T2 construct: or the expression of the entire intact receptor in its native environment; expressed in transfected cells; host or cells: porcine aortic endothelial cells (PAE)
Description: I125-FGF2 binding assay on PAE-FGFR1 cells. The following applies: porcine aortic endothelial cells overexpressing FGFR1; SSR even at high μM concentrations.

Experiment [2] concerns the target T3, FGFR1-ECD (FGFR1^∂123/Fc) (Homo sapiens, UniProt P11362).
T3 construct: FGFR1-ECD, consisting of the three Ig-like domains D1-3, coupled to a Fc-fragment (FGFR1^∂123/Fc)
Description: scintillation proximity binding assay (SPA), 125I-FGF2 to FGFR1-ECD/Fc. An excerpt: The objective of this study was to develop low molecular weight chemical compounds that bind to the FGFR extracellular domain (ECD) and inhibit FGFR signaling. Given that it is challenging to envisage how a small compound could interact with a much larger polypeptide (i.e. FGF) via simple steric hindrance for the orthosteric site, multiple ligand binding assay formats were utilized to determine whether any identified compounds were acting orthosterically of via an allosteric mechanism. We initially developed a high-throughput scintillation proximity binding assay (SPA) to identify compounds that inhibit the binding of ^125I-FGF2 to FGFR1-ECD, consisting of the three Ig-like domains D1-3, coupled to a Fc-fragment (FGFR1^∂123/Fc).

Experiment [3] deals with T4, TNF-R1 extracellular protein (Homo sapiens, UniProt P19438).
T4 construct: made in house
T4 sequence (P19438 30-211 limits assumed): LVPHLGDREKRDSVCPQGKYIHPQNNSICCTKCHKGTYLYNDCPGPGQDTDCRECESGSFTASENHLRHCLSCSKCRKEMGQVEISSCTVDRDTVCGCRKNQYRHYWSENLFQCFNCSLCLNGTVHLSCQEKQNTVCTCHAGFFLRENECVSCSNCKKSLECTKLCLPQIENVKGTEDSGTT
Description: STD-NMR binding assay, TNF-R1 control. The following applies: STD-NMR specificity control.

A further experiment has as its target T5, FGFR4 (Homo sapiens, UniProt P22455).
T5 construct: expressed in transfected cells; host or cells: murine pre-B 300-19 cells
Description: FGF2 binding to FGFR4 in intact cells. The following applies: receptor expressed in intact cells.

T2 sequence (P11362 22-822): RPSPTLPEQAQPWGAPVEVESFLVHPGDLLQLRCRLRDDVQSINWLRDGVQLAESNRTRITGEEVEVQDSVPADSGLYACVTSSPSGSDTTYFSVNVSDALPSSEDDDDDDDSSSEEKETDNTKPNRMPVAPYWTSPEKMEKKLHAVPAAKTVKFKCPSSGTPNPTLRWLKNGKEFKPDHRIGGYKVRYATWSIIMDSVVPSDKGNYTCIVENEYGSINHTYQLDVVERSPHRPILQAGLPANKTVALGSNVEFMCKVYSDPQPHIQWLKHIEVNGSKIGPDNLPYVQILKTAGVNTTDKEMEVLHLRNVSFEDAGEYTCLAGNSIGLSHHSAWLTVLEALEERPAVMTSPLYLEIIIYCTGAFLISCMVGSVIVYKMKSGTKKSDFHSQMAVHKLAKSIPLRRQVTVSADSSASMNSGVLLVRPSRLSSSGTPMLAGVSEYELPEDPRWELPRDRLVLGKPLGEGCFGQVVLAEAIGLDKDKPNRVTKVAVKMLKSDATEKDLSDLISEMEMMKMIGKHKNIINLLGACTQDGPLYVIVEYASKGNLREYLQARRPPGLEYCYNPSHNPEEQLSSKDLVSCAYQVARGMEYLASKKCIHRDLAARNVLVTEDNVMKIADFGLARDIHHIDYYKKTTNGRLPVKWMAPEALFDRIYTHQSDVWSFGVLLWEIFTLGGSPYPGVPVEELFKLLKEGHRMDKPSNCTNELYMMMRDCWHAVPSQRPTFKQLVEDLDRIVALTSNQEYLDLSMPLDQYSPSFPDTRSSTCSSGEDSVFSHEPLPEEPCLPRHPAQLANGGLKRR
T3 sequence (P11362 22-376 limits assumed): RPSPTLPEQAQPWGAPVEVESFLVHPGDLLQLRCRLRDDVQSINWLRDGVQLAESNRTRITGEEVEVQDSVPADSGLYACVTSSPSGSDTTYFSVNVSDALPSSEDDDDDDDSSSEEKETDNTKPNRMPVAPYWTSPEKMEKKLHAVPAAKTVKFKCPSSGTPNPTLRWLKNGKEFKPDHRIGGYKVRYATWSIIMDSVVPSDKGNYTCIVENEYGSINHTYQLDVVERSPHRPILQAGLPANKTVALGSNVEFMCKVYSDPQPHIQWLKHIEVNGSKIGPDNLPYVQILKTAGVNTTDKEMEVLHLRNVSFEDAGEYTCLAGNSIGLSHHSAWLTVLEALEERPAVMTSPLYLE
T5 sequence (P22455 22-802): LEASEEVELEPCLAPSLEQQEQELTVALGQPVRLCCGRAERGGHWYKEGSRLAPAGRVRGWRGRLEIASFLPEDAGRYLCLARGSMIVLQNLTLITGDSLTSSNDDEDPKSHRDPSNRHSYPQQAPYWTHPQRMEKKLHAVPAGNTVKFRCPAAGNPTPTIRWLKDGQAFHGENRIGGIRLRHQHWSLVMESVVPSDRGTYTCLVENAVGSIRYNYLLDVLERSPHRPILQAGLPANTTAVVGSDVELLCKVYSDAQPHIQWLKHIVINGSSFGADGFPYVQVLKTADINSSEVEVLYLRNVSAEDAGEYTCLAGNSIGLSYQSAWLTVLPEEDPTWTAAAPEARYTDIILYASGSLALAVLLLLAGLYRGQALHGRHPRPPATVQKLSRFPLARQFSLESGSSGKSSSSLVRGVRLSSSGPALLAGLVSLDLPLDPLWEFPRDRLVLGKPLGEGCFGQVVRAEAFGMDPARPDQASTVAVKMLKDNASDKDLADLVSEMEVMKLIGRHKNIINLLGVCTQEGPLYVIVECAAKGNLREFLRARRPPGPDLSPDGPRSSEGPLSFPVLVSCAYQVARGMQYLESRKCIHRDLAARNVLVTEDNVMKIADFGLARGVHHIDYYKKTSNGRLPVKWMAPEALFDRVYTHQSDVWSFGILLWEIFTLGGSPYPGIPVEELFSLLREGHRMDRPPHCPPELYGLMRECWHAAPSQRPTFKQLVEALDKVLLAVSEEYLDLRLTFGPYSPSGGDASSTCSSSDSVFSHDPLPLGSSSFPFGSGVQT

On to `COc1c(C)c(C(=O)c2ccc(N)c(C(=O)[O-])c2)n2ccccc12.[Na+]` [SSR], for which the “proliferation of B9-FGFR3TD cells” value in the experiment on B9-FGFR3TD cell line is recorded as “insensitve”. For the same compound, the “binding to ECD of FGFR1” value in experiment [1] (STD-NMR, confirmed by 1D-NMR peak broadening) is given as “bound”. Besides, the “STD-NMR signal of SSR to the FGFR with heparin analogue” value in experiment [1] (presence or absence of sucrose octasulphate (SOS)) is listed as “comparable signal”. In addition, at FGFR1 (PAE-FGFR1), the “inhibition of I^125-FGF2 binding to its receptor” value is reported as “unable to inhibit I^125-FGF2 binding”. In addition, the “inhibition of ^125I-FGF2 binding to FGFR1-ECD” value in experiment [2] is “inhibited ^125I-FGF2 binding”. In addition, the “binding to TNF-R1 extracellular protein” value in experiment [3] is listed as “no binding is observed”. The “binding of FGF2 to FGFR4” value at FGFR4 was “failed to antagonize”.
